SMILES strings stand for the structures. pIC50: −log10 of the molar value. Entries after “also recorded” stand apart in the source; their conditions may differ.

What is called pIC50 is the negative decadic logarithm of the IC50, by convention in mol/L.

Test [1] has as its target T1, CDK9 (Homo sapiens, UniProt P50750).
T1 construct: purchased Reaction Biology Corp
Kind of test: CDK9 inhibitory activity of MC180295 and its enantiomers. Type of test: biochemical. Particulars: Fig. S3E. Here is the method:
CDK enzymatic assays were performed by Reaction Biology Corp. (Malvern, PA), using 10 µM ATP for determining MC180295 IC50 values for each CDK family member for which assays were available. Kinase enzymatic assays were also performed by Nanosyn (Santa Clara, CA), using microfluidic technology and MC180295 IC50 curves against 10 CDKs. Selectivity against CDK9 was confirmed for the enantiomers at Reaction Biology Corp. (Malvern, PA).

Test [2] has as its system GFP silenced by a methylated CMV promoter in YB5 cells. The experiment in a line: Live-cell assay for GFP reactivation in YB5 cells. In kind it is cell-based. Particulars: for lowest concentration reactivating GFP: after 24 h treatment, FACS. The method, then:
To identify novel epigenetic targets, we previously used a phenotype-based screen, the YB5 SW48 daughter cell line reporter system, to identify drugs that can reactivate GFP silenced by a methylated CMV promoter. […] […]. To better understand MC180295's antitumor effects, we tested its growth inhibition in a panel of cancer cell lines.
The live-cell assay for GFP reactivation in YB5 cells was done as previously described. Cells were treated with a single dose of drug 24 h after seeding at low density, and GFP fluorescence measured in a Millipore Guava flow cytometer (EMD, Millipore) instrument, or by imaging in a Cytation instrument (Agilent). Cancer cell lines (listed in Additional file 1: Fig. S1A) were obtained from ATCC or the Temple/Fox Chase Cellular Repository and cultured in the recommended medium. To measure growth inhibition, cells were seeded in 96-well plates at 40% confluency. Fresh medium was changed the next day and drugs were added directly. Drug-free fresh medium was changed on the fourth day. The cells were collected on day 5 by trypsin, suspended in medium, mixed with trypan blue (Thermo Fisher Scientific) (1:1 ratio), and counted using a LUNA II automated cell counter. Each sample was counted at least three times, and average numbers used for the analysis. Each treatment condition was performed in biological triplicates.

The subject of test [3] is SW48 cells. Kind of test: SW48 colon cancer xenograft in NSG mice. In kind it is in vivo. Particulars: for survival / tumor growth / tumor size: SW48 s.c. in NSG mice, 20 mg/kg i.p. q.o.d.; for tumor growth / tumor size: vs vehicle. Here is the method:
Fig. 3 Antitumor, survival, and metabolic effects of MC180295 and its enantiomers, MC180379 and MC180380. A Antitumor effects of MC180295, MC180379, and MC180380. NSG mice were inoculated (s.c.) with 2 × 10^6 SW48 cells. Eleven days later, when tumors were palpable, 20 mg/kg MC180295, MC180379, MC180380, or vehicle were administered (i.p.) every other day (q.o.d.). Tumor sizes were measured using a caliper. […] . C Antitumor effects of MC180379 and MC180380. NSG mice were inoculated (s.c.) with 1 × 10^6 HT29 cells. Twelve days later, when tumors were palpable, 20 mg/kg MC180379, MC180380, or vehicle were administered (i.p.) q.o.d. Tumor sizes were measured using a caliper. D HT29-xenografted mouse survival following (i.p.) q.o.d. dosing with 20 mg/kg MC180379 or MC180380. E NSG mice were inoculated (i.p.) with 5 × 10^5 MV4-11-luc cells. Four days later, when substantial tumor burden was evident by bioluminescence imaging, MC180379, MC180380, or vehicle were administered (i.p.) q.o.d at 20 mg/kg. Luciferase expression was quantified and calculated. F Mouse survival in days. […] G In vitro liver microsome stability and rat hepatocyte/Sprague–Dawley stability assay comparing MC180379 to MC180380. The dog breed was beagle and the mouse microsome strain was CD-1. All sexes (including the hepatocytes) were male except the human microsomes which were mixed gender. Significances were calculated using log-rank (Mantel-Cox) or Student’s t tests.
Fig. 4 Antitumor and survival-extending properties of a hypomethylating agent (DAC) combined with MC180295. A Antitumor effects of MC180295 and MC180295 + DAC. NSG mice were inoculated (s.c.) with 2 × 10^6 SW48 cells. Eleven days later, when tumors were palpable, 20 mg/kg MC180295 or vehicle were administered (i.p.) q.o.d. 0.5 mg/kg DAC was administered (i.p.) daily. Tumor sizes were measured using a caliper. B Mouse survival in days. 20 mg/kg MC180295 was administered (i.p.) q.o.d. 0.5 mg/kg DAC was administered (i.p.) daily. C NSG mice were inoculated (i.p.) with 5 × 10^5 MV4-11-luc cells. Four days later, when substantial tumor burden was evident by bioluminescence imaging, MC180295 (20 mg/kg) or vehicle were administered (i.p.) every other day. 0.5 mg/kg DAC was administered (i.p.) daily. Luciferase expression was quantified and calculated. […] E Antitumor effects of MC180380 and MC180380 + DAC. NSG mice were inoculated (s.c.) with 2 × 10^6 SW48 cells. Eleven days later, when tumors were palpable, 10 mg/kg MC180380, 20 mg/kg MC180380, or vehicle was administered (i.p.) q.o.d. 0.5 mg/kg DAC was administered (i.p.) daily. Mouse survival shown in days. Significances were calculated using log-rank (Mantel-Cox) or Student's t tests. Data are shown as means ± SEMs. ***p < 0.001
For the s.c. SW48 model, 2 × 10^6 cells were injected into the flanks of randomly assigned, gender-matched 8–10-week-old NSG mice.

T1 sequence (P50750 whole entry): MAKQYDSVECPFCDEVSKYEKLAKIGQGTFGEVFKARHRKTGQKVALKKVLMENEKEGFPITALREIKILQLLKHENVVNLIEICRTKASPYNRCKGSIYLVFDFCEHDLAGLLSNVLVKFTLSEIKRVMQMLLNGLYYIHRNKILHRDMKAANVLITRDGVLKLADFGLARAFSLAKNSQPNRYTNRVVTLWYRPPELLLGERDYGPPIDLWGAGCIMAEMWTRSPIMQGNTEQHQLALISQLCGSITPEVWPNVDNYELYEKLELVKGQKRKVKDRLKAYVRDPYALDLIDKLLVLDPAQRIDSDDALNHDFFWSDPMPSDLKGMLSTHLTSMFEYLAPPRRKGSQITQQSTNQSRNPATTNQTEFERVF
T1 sequence (O60563 whole entry partner): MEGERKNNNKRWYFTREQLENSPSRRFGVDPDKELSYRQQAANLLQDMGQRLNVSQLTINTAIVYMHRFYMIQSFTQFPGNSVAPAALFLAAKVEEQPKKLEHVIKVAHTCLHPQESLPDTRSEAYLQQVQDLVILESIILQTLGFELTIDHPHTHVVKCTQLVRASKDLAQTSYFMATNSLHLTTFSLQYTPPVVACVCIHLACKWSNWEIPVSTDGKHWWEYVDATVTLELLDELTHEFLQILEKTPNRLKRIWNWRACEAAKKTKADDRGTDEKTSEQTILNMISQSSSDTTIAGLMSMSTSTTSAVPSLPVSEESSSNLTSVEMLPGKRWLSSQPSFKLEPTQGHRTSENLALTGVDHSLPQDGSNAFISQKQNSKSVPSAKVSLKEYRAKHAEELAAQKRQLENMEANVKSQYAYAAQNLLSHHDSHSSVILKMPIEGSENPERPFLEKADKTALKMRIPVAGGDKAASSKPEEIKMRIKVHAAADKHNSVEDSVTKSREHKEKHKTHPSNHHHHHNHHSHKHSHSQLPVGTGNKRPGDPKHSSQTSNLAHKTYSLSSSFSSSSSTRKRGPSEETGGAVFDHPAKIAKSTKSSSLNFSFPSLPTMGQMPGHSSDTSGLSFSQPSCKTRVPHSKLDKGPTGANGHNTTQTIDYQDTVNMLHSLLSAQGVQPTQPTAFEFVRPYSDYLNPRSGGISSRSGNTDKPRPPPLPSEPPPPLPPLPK

As for `Nc1nc(N[C@@H]2C[C@H]3CC[C@@H]2C3)sc1C(=O)c1ccccc1[N+](=O)[O-]` [MC180379], the pIC50 in test [1] was 7.96. In addition, in test [2], the “lowest concentration reactivating GFP” value came out at 500 nM. For the same molecule, the survival entry in test [3] is “no survival difference”.
Molecule `Nc1nc(N[C@H]2C[C@@H]3CC[C@H]2C3)sc1C(=O)c1ccccc1[N+](=O)[O-]` (relative stereo) [MC180295] had a pIC50 in test [1] of 7.96. Moreover, in test [2], the “lowest concentration reactivating GFP” value was found to be 100 nM. Moreover, in test [3] (20 mg/kg), the “tumor growth / tumor size” value was “significantly reduce tumor size” and the survival result is reported as “prolong overall survival”. Besides, the “tumor growth / tumor size” value in test [3] (listed as MC190295, 20 mg/kg) is given as “no statistical difference in tumor size”.
In turn, `Nc1nc(N[C@H]2C[C@@H]3CC[C@H]2C3)sc1C(=O)c1ccccc1[N+](=O)[O-]` [MC180380] had a negative logarithm of the IC50 (pIC50) in test [1] of 8.05. The “potency in inducing GFP (comparison of enantiomers)” value in test [2] (24 h and 4 days after one-time treatment) was “more potent than MC18379 in inducing GFP; also recorded: epigenetically more potent than MC180379”. Also, in test [2], the “lowest concentration reactivating GFP” value was determined as 100 nM. The “overall survival, dose comparison” value in test [3] (SW48 in NSG mice, 10 or 20 mg/kg MC180380 i.p. q.o.d.) is on record as 20 mg/kg led to better overall survival than 10 mg/kg. Moreover, the survival result in test [3] (20 mg/kg) is “no survival difference”.

The values above are taken from paper PMC10765884, “MC180295 is a highly potent and selective CDK9 inhibitor with preclinical in vitro and in vivo efficacy in cancer” (Clinical Epigenetics, 2024).
